Data on 4 compounds can be found in patent US11026914B2 (DelMar Pharmaceuticals, Inc., priority 2013, dated 2021).

As usually defined, the Cmax is the peak of the concentration-time curve. As usually defined, the AUC is concentration integrated over time. A lower AUC goes with less exposure. Broadly, the Tmax is the time at which the peak concentration occurs.

One series relates to GBM. The conditions noted are these: cited from earlier work.
Series [1] has as its system intracranial U251 human glioma tumors. The source says:
However, TMZ-resistance has emerged as a significant unmet medical need, as DNA repair enzyme O^6-methylguanine DNA methyltransferase (MGMT) removes the methyl-group adducts caused by TMZ. […] We thus sought to investigate how our CSC and non-CSC panel would respond to VAL-083 alone or in combination with XRT. We further investigated the activity of VAL-083 in in vivo models of drug-resistant GBM in comparison to TMZ. Rag2 mice bearing intracranial human GBM xenograft tumors of either MGMT-positive and TMZ-resistant origin (BT74), or MGMT-negative and TMZ-sensitive origin (U251) were treated. VAL-083 was given i.p. 3 times/week×3 weeks, and the efficacy of VAL-083 in controlling tumor growth compared to TMZ (30 mg/kg). Disease progression was evaluated by overall survival, clinical observations and body weight measurements.
On study day 0 for each set of mice, 44 female Rag2 mice were inoculated intracranially in the right caudate-putamen nucleus (coordinates: ML-1.5 mm; AP 1 mm; DV −3.5 mm) with 7.5×10^4 U251 human glioma cells.

Series [2] has as its system GBM cell lines SF188, U251, and T98G. In words: Inhibition of tumor cell growth in GBM cell lines (FIG. 1, FIG. 6). The conditions noted are these: independent of MGMT. It is filed as cell-based, human.
Series [3] concerns normal human neural stem cells. The conditions noted are these: neurosphere growth assays; cited from earlier work.
Series [4] has as its system progressive secondary brain tumor. Briefly: Phase I/II dose-escalation study: tumor response in progressive secondary brain tumor patients. It is filed as in vivo, human. As to conditions: n = 6. An excerpt:
(2) There is evidence of leptomeningeal spread of disease.
Outcomes analysis of cohort 6 is ongoing.

A short description of series [5]: Plasma pharmacokinetics in brain tumor patients after IV infusion (WinNonlin non-compartmental analysis). The conditions noted are these: for dose dependence of systemic exposure: dose escalation in patients. The format is in vivo, human. On the procedure:
Plasma drug concentration analysis data were analyzed using WinNonlin®, version 2.1A software (Pharsight Inc., Mountain View, Calif.) and Microsoft Office Excel 2007. Pharmacokinetic analysis was conducted by Dr. Sarath Kanekal, Ph.D. Use of MS Excel was limited to receipt of raw data, transfer into WinNonlin and generation of tables (Mean and SD) and graphs for the report.
The starting dose for Cohort #1 was 1.5 mg/m^2 IV daily×3 every 21 days. Cohorts 2 and 3 received DAG at doses of 3.0 and 5.0 mg/m^2 IV daily×3 every 21 days, respectively; cohort 4 received 10 mg/m^2. Dose escalation beyond 10 mg/m^2, up to 40 mg/m^2 IV daily×3 every 21 days is planned in the ongoing trial. Sample collection was on Day 1 at each dose level at the following time points: pre-dose, and 0.25, 0.5, 1, 2, 4, 6 h 15±5 minutes, 30±5 minutes, 60±10 minutes, 120±10 minutes, 240±15 minutes, and 360±15 minutes after the end of the IV study drug administration and immediately prior to Cycle 1, Day 2 of dosing. Drug concentration data was received from at least 3 patients for cohorts 1, 2 and 3, but only from 2 patients in cohort 4.
For the purposes of this interim analysis a fixed constant infusion time of 30 minutes and nominal collection time intervals were used for all patients. […] For the final PK analysis individual patient infusion time and exact collection time are used.
Pharmacokinetic analyses were performed on the plasma concentration versus time data using WinNonlin (Ver 2.1A) via non-compartmental analysis (NCA). A model for constant infusion (WinNonlin Model #202) was used for the analyses. Uniform weighting was used for all data. AUCall was calculated by the linear trapezoid rule and t1/2 of lambda z was used for estimating the terminal half-life. The last 2 or 3 concentrations above LLOQ were used for calculating lambda z. For clearance (CL) and Volume of Distribution (Vz), observed CL and observed Vz values outputted by WinNonlin are reported here. All plasma concentrations measurements reported as below the limit of quantitation (BLQ) was set equal to zero, and those reported as NS (no sample), if any, were left blank and treated as missing. Mean concentration and WinNonlin derived parameters are presented with standard deviation.

For series [6] the following is noted: human, in vivo.
Text: (§1) The study utilizes a 3+3 dose escalation design, until the MTD or the maximum specified dose is reached. […] In Phase II, additional patients will be treated at the MTD (or other selected optimum Phase II dose) to measure tumor responses. […] For these studies, the following is a summary of the inclusion criteria: (1) Patients must be greater than or equal to 18 years old. […] The following is a summary of the exclusion criteria: (1) There is a current history of neoplasm other than the entry diagnosis. Patients with previous cancers treated and cured with local therapy alone may be considered. (2) There is evidence of leptomeningeal spread of disease.
Open-label, single-arm Phase I/II dose-escalation study in patients with histologically-confirmed initial diagnosis of primary WHO Grade IV malignant glioma (glioblastoma). […] The study utilizes a 3+3 dose-escalation design.
The test system of series [7] is recurrent glioblastoma multiforme (GBM). In words: Phase I/II dose-escalation study: tumor response (RANO) in recurrent GBM patients.
Text: as §1
Higher doses may be enrolled subject to completion of mandated safety observation period with Cohort 6 (30 mg/m^2). Patients enrolled present with refractory progressive GBM and a dire prognosis. […] The primary endpoint of this portion of the study is to determine a modernized dosing regimen for advancement to registration-directed clinical trials. […] In this design, it is not possible to perform a rigorous assessment of patient benefit due to slowed tumor growth. Tumor volume is assessed during the study based on RANO criteria.
Open-label, single-arm Phase I/II dose-escalation study in patients with histologically-confirmed initial diagnosis of primary WHO Grade IV malignant glioma (glioblastoma). […] The study utilizes a 3+3 dose-escalation design. […] The RANO (Response Assessment in Neuro-Oncology) criteria divide responses into four general categories: complete response, partial response, stable disease, and regression.
Series [8] has as its system cancer stem cells (BT74, GBM4 and GBM8). As to conditions: BT74, GBM4 and GBM8, neurosphere growth assays; cited from earlier work.
Series [9] concerns the target glycogen synthase kinase-3β (GSK-3β) (Homo sapiens, UniProt P49841). As to conditions: cited from earlier work.

Structures are written as SMILES. Read-outs that look alike come from different tables or passages of the source.

glycogen synthase kinase-3β (GSK-3β), sequence (P49841 whole entry, species assumed): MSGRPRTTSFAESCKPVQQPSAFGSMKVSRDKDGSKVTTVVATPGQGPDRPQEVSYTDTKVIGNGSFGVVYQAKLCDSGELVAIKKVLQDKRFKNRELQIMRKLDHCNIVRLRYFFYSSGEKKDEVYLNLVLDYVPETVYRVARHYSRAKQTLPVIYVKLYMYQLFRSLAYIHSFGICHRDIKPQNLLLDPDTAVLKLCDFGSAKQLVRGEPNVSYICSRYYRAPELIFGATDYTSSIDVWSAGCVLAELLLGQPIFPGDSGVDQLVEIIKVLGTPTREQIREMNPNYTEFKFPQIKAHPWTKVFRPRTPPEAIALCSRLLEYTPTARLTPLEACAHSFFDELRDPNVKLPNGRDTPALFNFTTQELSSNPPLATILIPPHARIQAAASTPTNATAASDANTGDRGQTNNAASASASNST

Regarding `O=NN(CCCl)C(=O)NCCCl` [Carmustine], in the series with GBM (GBM, historical data), the “Median O.S. (XRT + Chemo)” value is listed as 40-50 weeks. For the same compound, the Nadir in the series with GBM (human, in vivo) is 21 to 35 days.
Regarding `O[C@H]([C@H](O)[C@@H]1CO1)[C@H]1CO1` [dianhydrogalactitol], the median survival time in series [1] (3 mg/kg i.p. 3 times/week x 3 weeks) is on record as 54 days; in series [1] (4 mg/kg i.p. 3 times/week x 3 weeks), 72 days; in [1] (5 mg/kg i.p., 4 doses only), 57 days. Further, the “inhibition of tumor (cell) growth compared with TMZ” value in series [2] is given as “better than TMZ”. Further, in series [3], the “effect on normal human neural stem cells” value is on record as “minimal effect”. Besides, the “Tumor Response, Overall” value was determined as 17% in series [4] and 25% in series [7] (GBM patients, n = 8). For the same compound, the “Tumor Response, type (number of patients)” value was “SD (1)” in series [4] and “PR (1); SD” in series [7] (GBM patients, n = 8). In addition, the “average Cmax” value in [5] (10 mg/m^2) is on record as less than 200 ng/mL. Besides, the Cmax is 180 ng/mL in series [5] (20 mg/m^2, average); 16.5 ng/mL in [5] (Cohort 1, 1.5 mg/m^2); 46.4 ng/mL in [5] (Cohort 2, 3 mg/m^2); 80.5 ng/mL in series [5] (Cohort 3, 5 mg/m^2); 172.0 ng/mL in series [5] (Cohort 4, 10 mg/m^2). The AUC in series [5] (Cohort 1, 1.5 mg/m^2) was determined as 18.9 ng·h/mL; in series [5] (Cohort 2, 3 mg/m^2), 48.5 ng·h/mL; in series [5] (Cohort 3, 5 mg/m^2) it was 108.0 ng·h/mL; in [5] (Cohort 4, 10 mg/m^2) it was 191.7 ng·h/mL. For the same compound, the Tmax in series [5] (Cohort 1, 1.5 mg/m^2) was 15 min; in series [5] (Cohort 2, 3 mg/m^2), 15 min; in [5] (Cohort 3, 5 mg/m^2), 15 min; in series [5] (Cohort 4, 10 mg/m^2), 15 min. Besides, the t-½ in series [5] (Cohort 1, 1.5 mg/m^2) turned out to be 2.02 h; in [5] (Cohort 2, 3 mg/m^2), 0.83 h; in series [5] (Cohort 3, 5 mg/m^2), 1.27 h; in series [5] (Cohort 4, 10 mg/m^2), 1.19 h. The “time of peak concentration after initiation of the intravenous infusion” value in [5] (all dose levels 1.5-10 mg/m^2) is reported as 0.25. For the same compound, in series [5] (cohorts 1-4), the “time for plasma concentrations to return to near baseline after dosing” value is no more than 8 h. Also, the “dose dependence of systemic exposure” value in series [5] is “dose-dependent linear systemic exposure”; in series [5] (listed as DAG), “more than dose proportional increase in exposure”; in [5] (listed as Dianhydrogalactitol) it was “dose-dependent increase in exposure”; in series [5] (listed as VAL-083), “dose-dependent linear systemic exposure”. The same compound returned a plasma half-life in [5] (patients, IV) of 60 to 120 min. This compound also showed a plasma terminal half-life in series [5] (patients, IV) of 60 to 120 min. In addition, the “maximum tolerated dose (MTD), as 33 day cycle cumulative dose” value in series [6] is recorded as greater than 120 mg/m^2. In addition, in the series with GBM (GBM, historical data), the Recovery entry is recorded as “Within 7-8 days”. Besides, in the series with GBM (human, in vivo, iv), the “efficacy in combination with radiation versus radiation alone” value is “superior to radiation alone”. In the series on GBM (human, in vivo), the DLT entry is listed as “Hematologic”. Also, in the series with GBM (human, in vivo), the “Median O.S. (XRT + Chemo)” value was 67 weeks. Moreover, in the series on GBM (human, in vivo), the Nadir is 18 to 21 days. For the same compound, the “Other Severe Toxicities Reported (>2%)” value in the series on GBM (human, in vivo) is listed as “None”. Besides, the “tumor response in cohort 6” value in [7] (30 mg/m^2, after 1 cycle, one of two patients) was “exhibited stable disease”. Further, the “MRI scans, abnormal enhancement” value in series [7] (Patient #26, T=0 vs T=64 days, after two cycles) is recorded as “Thick confluent regions of abnormal enhancement have diminished”. Moreover, the “patients exhibiting a response (stable disease or partial response)” value in [7] (early cohorts, Example 1) is “Two patients exhibiting a response”. Besides, the “inhibition of growth of cancer stem cells” value in [8] is 80-100%.
As to `Cn1nnc2c(C(N)=O)ncn2c1=O` [temozolomide], the “day of termination at the end of the study” value in series [1] (TMZ 30 mg/kg) was determined as 102 days. Moreover, in the series on GBM (GBM, historical data), the DLT entry was “Hematologic”, the Nadir was 21 to 28 days and the Recovery result is on record as “Within 14 days”.
On to `CN1C(=O)/C(=C2/C(=O)Nc3ccccc32)c2ccccc21` [meisoindigo], for which the “concentration for inhibition of GSK-3β” value in series [9] is 5 to 50 nM.
